The test system of the experiment is MAGI host cells cytotoxicity, % cell control, 5% serum. Briefly: cytotoxicity in MAGI host cells, dose response, cytotoxicity control for HIV-1 antiviral project, 5% and 10% serum, set 2 (AID 2812).
Setting [1] is: MAGI host cells cytotoxicity, % cell control, 10% serum.

The source made the active and inactive calls. No rule for the calls is given here.

This note sets out measurements from PubChem BioAssay AID2812 (Southern Research Specialized Biocontainment Screening …, 2010).

As for `COc1ccc(C(=O)Oc2ccc(C=NNc3ccc(Cl)c(C(=O)O)c3)cc2OC)cc1`, the TC50 is > 100 µM (inactive). This compound also displayed a TC50 under setting [1] greater than 100 µM. On to `COc1ccc(OC)c(N2C(=O)/C(=C/c3ccco3)C(=O)NC2=S)c1`, for which the TC50 under setting [1] was greater than 100 µM. Regarding `O=C(O)c1cc(NN=Cc2ccc(-c3ccccc3)cc2)ccc1Cl`, the TC50 was > 100 µM (inactive). Under setting [1], the TC50 is greater than 100 µM.

For the compound `CS(=O)(=O)C1=NSC2=NC(=O)/C(=C\c3cccn3-c3ccc(Cl)cc3)C(=N)N21`, the TC50 is > 100 µM (inactive). Under setting [1], this compound had a TC50 greater than 100 µM. In the same order, the values of `CC1(C)CC(=O)C2=C(C1)c1c(ccc3ccccc13)NC2c1cc([N+](=O)[O-])cc([N+](=O)[O-])c1O` (stereo not given) are 58.6 µM and greater than 100 µM. As for `CS(=O)(=O)C1=NSC2=NC(=O)/C(=C\c3ccc(OS(=O)(=O)c4ccccc4)cc3)C(=N)N21`, the TC50 is > 100 µM (inactive). Under setting [1], this compound showed a TC50 greater than 100 µM.

For `O=C1NC(=S)N(c2ccc(F)cc2)C(=O)/C1=C/c1ccco1`, the TC50 under setting [1] is greater than 100 µM. For `Cc1cc(C)cc(-n2cccc2/C=C2/C(=N)N3C(=NC2=O)SN=C3S(C)(=O)=O)c1`, the TC50 was 79.5 µM. Moreover, the TC50 under setting [1] is greater than 100 µM. On the same counts, the results for `CC(C)S(=O)(=O)C1=NSC2=NC(=O)/C(=C\c3ccc(-c4ccccc4)o3)C(=N)N21` are 74 µM and greater than 100 µM. For the compound `Cc1ccc(-n2c(O)c(C=Nc3ccccc3-c3n[nH]c(=S)[nH]c3=O)c3ccccc3c2=O)c(C)c1`, under setting [1], the TC50 is greater than 100 µM. In the case of `COc1ccccc1NS(=O)(=O)c1cccc(-n2c(O)c(C=Nc3ccccc3C(=O)O)c3ccccc3c2=O)c1`, the TC50 is 93.7 µM. Also, under setting [1], the TC50 was greater than 100 µM. On the same counts, the results for `O=C(O)c1ccccc1C(=O)N(Cc1cccc(Oc2ccc(Cl)cc2)c1)[C@H]1CCCc2ccccc21` are 56.4 µM and greater than 100 µM.

As to `O=c1c(=Cc2cc([N+](=O)[O-])cc([N+](=O)[O-])c2O)sc2nc3ccccc3n12`, the TC50 is > 100 µM (inactive). The same compound gave a TC50 under setting [1] greater than 100 µM.

As to `CC(C)S(=O)(=O)C1=NSC2=NC(=O)/C(=C\c3ccc(-c4cccc(C(=O)O)c4)o3)C(=N)N21`, the TC50 was > 100 µM (inactive). Also, the TC50 under setting [1] is greater than 100 µM. In the same order, the values of `COc1cc(C=NNc2ccc(Cl)c(C(=O)O)c2)ccc1OC(=O)c1ccc(F)cc1` are > 100 µM (inactive) and greater than 100 µM.

Consider `Cc1ccc(-n2cccc2/C=C2/C(=N)N3C(=NC2=O)SN=C3S(C)(=O)=O)cc1Cl`, for which the TC50 is > 100 µM (inactive). In addition, the TC50 under setting [1] was greater than 100 µM.

Take `CCS(=O)(=O)C1=NSC2=NC(=O)/C(=C\c3ccc(OS(=O)(=O)c4ccccc4)cc3)C(=N)N21`: the TC50 is > 100 µM (inactive). This compound had a TC50 under setting [1] greater than 100 µM. Take `COc1cc(C=NNc2ccc(Cl)c(C(=O)O)c2)ccc1OC(=O)c1ccccc1F`: the TC50 is > 100 µM (inactive). Moreover, the TC50 under setting [1] is greater than 100 µM. In the same order, the values of `Cc1ccc(S(=O)(=O)Oc2ccc(/C=C3/C(=N)N4C(=NC3=O)SN=C4S(C)(=O)=O)cc2)cc1` are > 100 µM (inactive) and greater than 100 µM.
